Experimental data from US9980943B2, “Methods of treating muscular dystrophy” (BOARD OF REGENTS OF THE NEVADA SYSTEM OF HIGHER EDUCATION, …, priority 2013, dated 2018).

How the values were obtained:
Type in all cases: cell-based, mouse
[1] = tested on: α7 integrin (LacZ reporter in α7βgal+/− myoblasts); assay: Myoblast α7+/LacZ integrin FDG assay (Burkin assay in myoblasts, 96-well); conditions: α7+/LacZ myoblasts, 96-well
[2] = tested on: α7 integrin (LacZ reporter in α7+/LacZ myotubes); assay: Myotube α7 integrin FDG assay (Burkin assay in myotubes, 96-well); conditions: myotubes
[3] = tested on: β-galactosidase in CMV-LacZ C2C12 myotubes; assay: CMV-LacZ secondary screen in C2C12 myotubes (β-Gal stabilizing assay); conditions: for CMV-LACZ in Myotubes (β-galactosidase activity relative to DMSO): CMV-LacZ C2C12 myotubes, 96-well format
Summary of the method: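 First, C2C12 myoblasts were transfected with a linearized CMV-LACZ vector and clonal lines selected by FDG β-gal assay. Then cells were exposed to compounds at 0.5, 1, 5, 10, 20 and 40 μM in 96-well format, two replicates each, and β-gal measured.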

[4] = 5 uM, C2C12 CMV-LacZ myotubes, fold relative to DMSO
[5] = 10 uM, C2C12 CMV-LacZ myotubes, fold relative to DMSO
[6] = 20 uM, C2C12 CMV-LacZ myotubes, fold relative to DMSO
[7] = 40 uM, C2C12 CMV-LacZ myotubes, fold relative to DMSO

Row | Structure (SMILES) | Burkin Assay in Myoblasts, value relative to DMSO ([1]; 0.5 uM) | Burkin Assay in Myoblasts, value relative to DMSO ([1]; 1 uM) | Burkin Assay in Myoblasts, value relative to DMSO ([1]; 5 uM) | Burkin Assay in Myoblasts, value relative to DMSO ([1]; 10 uM) | Burkin Assay in Myoblasts, value relative to DMSO ([1]; 20 uM) | Burkin Assay in Myoblasts, value relative to DMSO ([1]; 40 uM) | Burkin Assay in Myotubes (signal relative to DMSO) ([2]; 0.5 uM) | Burkin Assay in Myotubes (signal relative to DMSO) ([2]; 1 uM) | Burkin Assay in Myotubes (signal relative to DMSO) ([2]; 5 uM) | Burkin Assay in Myotubes (signal relative to DMSO) ([2]; 10 uM) | Burkin Assay in Myotubes (signal relative to DMSO) ([2]; 20 uM) | Burkin Assay in Myotubes (signal relative to DMSO) ([2]; 40 uM) | CMV-LACZ in Myotubes, signal relative to DMSO [3, 4] | CMV-LACZ in Myotubes, signal relative to DMSO [3, 5] | CMV-LACZ in Myotubes, signal relative to DMSO [3, 6] | CMV-LACZ in Myotubes, signal relative to DMSO [3, 7] | also measured
1 | COc1ccc(CNC(=O)CCN2C(=O)c3ccccc3C2=O)cc1 [MLS001200980-01] | 0.9918 | 0.9255 | 1.055 | 0.9544 | 0.9561 | 0.9201 | 1.0669 | 1.022 | 1.121 | 1.216 | 1.015 | 0.9712 | 0.8782 | 0.9568 | 0.9272 | 1.0886 | –
2 | O=C(Nc1cc(Br)ccc1O)C1CC(c2ccccc2Cl)=NO1 (stereo not shown) [MLS001202627-01] | 1.172 | 1.081 | 0.9923 | 0.7739 | 0.5427 | 0.2179 | 0.9687 | 0.7692 | 1.025 | 0.8124 | 0.9394 | 0.2335 | – | – | – | – | CMV-LACZ in Myotubes (β-galactosidase activity relative to DMSO) ([3]; 5 uM): 0.9234; CMV-LACZ in Myotubes (β-galactosidase activity relative to DMSO) ([3]; 10 uM): 0.9555; CMV-LACZ in Myotubes (β-galactosidase activity relative to DMSO) ([3]; 20 uM): 0.9345; CMV-LACZ in Myotubes (β-galactosidase activity relative to DMSO) ([3]; 40 uM): 0.735
3 | COc1ccc(NC(=O)c2ccc3nc(C)sc3c2)cc1 [MLS001204005-01] | – | – | – | – | – | – | – | – | – | – | – | – | – | – | – | – | fold induction at 0.5 µM ([1]; Mus musculus, Myoblast, 48 h, 0.5 uM, read-out: Burkin Assay in Myoblasts, value relative to DMSO): 1.08; fold induction at 1 µM ([1]; Mus musculus, Myoblast, 48 h, 1 uM, read-out: Burkin Assay in Myoblasts, value relative to DMSO): 1.15; fold induction at 5 µM ([1]; Mus musculus, Myoblast, 48 h, 5 uM, read-out: Burkin Assay in Myoblasts, value relative to DMSO): 1.02; fold induction at 10 µM ([1]; Mus musculus, Myoblast, 48 h, 10 uM, read-out: Burkin Assay in Myoblasts, value relative to DMSO): 1.24; fold induction at 20 µM ([1]; Mus musculus, Myoblast, 48 h, 20 uM, read-out: Burkin Assay in Myoblasts, value relative to DMSO): 1.23; fold induction at 40 µM ([1]; Mus musculus, Myoblast, 48 h, 40 uM, read-out: Burkin Assay in Myoblasts, value relative to DMSO): 1.17; fold induction at 0.5 µM ([2]; Mus musculus, Myotube, 0.5 uM, read-out: Burkin Assay in Myotubes (signal relative to DMSO)): 0.903; fold induction at 1 µM ([2]; Mus musculus, Myotube, 1 uM, read-out: Burkin Assay in Myotubes (signal relative to DMSO)): 0.987; fold induction at 5 µM ([2]; Mus musculus, Myotube, 5 uM, read-out: Burkin Assay in Myotubes (signal relative to DMSO)): 0.763; fold induction at 10 µM ([2]; Mus musculus, Myotube, 10 uM, read-out: Burkin Assay in Myotubes (signal relative to DMSO)): 1.02; fold induction at 20 µM ([2]; Mus musculus, Myotube, 20 uM, read-out: Burkin Assay in Myotubes (signal relative to DMSO)): 0.818; fold induction at 40 µM ([2]; Mus musculus, Myotube, 40 uM, read-out: Burkin Assay in Myotubes (signal relative to DMSO)): 1.16; fold induction at 5 µM ([3]; Mus musculus, C2C12, read-out: CMV-LACZ in Myotubes, signal relative to DMSO, 5 uM, C2C12 CMV-LacZ myotubes, fold relative to DMSO): 0.94; fold induction at 10 µM ([3]; Mus musculus, C2C12, read-out: CMV-LACZ in Myotubes, signal relative to DMSO, 10 uM, C2C12 CMV-LacZ myotubes, fold relative to DMSO): 1.14; fold induction at 20 µM ([3]; Mus musculus, C2C12, read-out: CMV-LACZ in Myotubes, signal relative to DMSO, 20 uM, C2C12 CMV-LacZ myotubes, fold relative to DMSO): 1.02; fold induction at 40 µM ([3]; Mus musculus, C2C12, read-out: CMV-LACZ in Myotubes, signal relative to DMSO, 40 uM, C2C12 CMV-LacZ myotubes, fold relative to DMSO): 0.781
4 | COc1ccc2oc(C[S+]([O-])c3ccccc3)c(C(=O)O)c2c1 (stereo not shown) [MLS001208858-01] | – | – | – | – | – | – | – | – | – | – | – | – | 0.944 | 0.8018 | 0.9471 | 0.9238 | Burkin Assay in Myoblasts, signal relative to DMSO ([1]; 0.5 uM): 0.9851; Burkin Assay in Myoblasts, signal relative to DMSO ([1]; 1 uM): 1.003; Burkin Assay in Myoblasts, signal relative to DMSO ([1]; 5 uM): 0.8892; Burkin Assay in Myoblasts, signal relative to DMSO ([1]; 10 uM): 0.8759; Burkin Assay in Myoblasts, signal relative to DMSO ([1]; 20 uM): 0.8548; Burkin Assay in Myoblasts, signal relative to DMSO ([1]; 40 uM): 0.8425; Burkin Assay in Myotubes, α7 integrin LacZ reporter signal relative to DMSO ([2]; 0.5 uM): 1.095; Burkin Assay in Myotubes, α7 integrin LacZ reporter signal relative to DMSO ([2]; 1 uM): 0.9977; Burkin Assay in Myotubes, α7 integrin LacZ reporter signal relative to DMSO ([2]; 5 uM): 1.104; Burkin Assay in Myotubes, α7 integrin LacZ reporter signal relative to DMSO ([2]; 10 uM): 1.062; Burkin Assay in Myotubes, α7 integrin LacZ reporter signal relative to DMSO ([2]; 20 uM): 1.1; Burkin Assay in Myotubes, α7 integrin LacZ reporter signal relative to DMSO ([2]; 40 uM): 1.007
